Measured values published in patent US20230172206A1 (BASF SE, priority 2020, published 2023).

Legend:
[1] = system: Phakopsora pachyrhizi (F129L); test: Protective control of soybean rust on soybeans (PHAKPA P2); type: in vivo; settings: soybean rust F129L isolate; for % PHAKPA (F129L) Disease level P2 at 4 ppm: protective P2, 4 ppm; for % PHAKPA (F129L) Disease level P2 at 16 ppm: protective P2, 16 ppm
[2] = system: Phakopsora pachyrhizi (F129L); test: Protective control of soybean rust on soybeans (PHAKPA P6); type: in vivo; settings: soybean rust F129L isolate; for % PHAKPA (F129L) Disease level P6 at 4 ppm: protective P6, 4 ppm; for % PHAKPA (F129L) Disease level P6 at 16 ppm: protective P6, 16 ppm

Row | SMILES | % PHAKPA (F129L) Disease level P2 at 4 ppm [1] | % PHAKPA (F129L) Disease level P2 at 16 ppm [1] | % PHAKPA (F129L) Disease level P6 at 4 ppm [2] | % PHAKPA (F129L) Disease level P6 at 16 ppm [2]
1 | CO/N=C(/C(=O)OC)c1cccc(C)c1CO/N=C(\C)c1ccc(F)cc1C(F)(F)F [compound 263] | 80% | 15% | 73% | 22%
2 | CO/N=C(/C(=O)OC)c1cccc(C)c1CO/N=C(\C)c1ccc(F)cc1F [compound 266] | 67% | 18% | 90% | 43%
3 | CNC(=O)/C(=N/OC)c1cccc(C)c1CO/N=C(\C)c1ccc(F)cc1F [compound 267] | 2% | 0% | 10% | 4%
4 | CO/N=C(/C(=O)OC)c1cccc(C)c1CO/N=C(\C)c1ccc(OC(F)(F)F)cc1Cl [compound 268] | 63% | 6% | 60% | 17%
5 | CO/N=C(/C(=O)OC)c1cccc(C)c1CO/N=C(\C)c1ccc(OC(F)(F)F)cc1F [compound 269] | 5% | 0% | 18% | 0%
6 | CNC(=O)/C(=N/OC)c1cccc(C)c1CO/N=C(\C)c1ccc(OC(F)(F)F)cc1F [compound 270] | 3% | 0% | 0% | 1%
7 | CNC(=O)/C(=N/OC)c1cccc(C)c1CO/N=C(\C)c1ccccc1COC [compound 277] | 100% | 60% | 100% | 100%
8 | CNC(=O)/C(=N/OC)c1cccc(C)c1CO/N=C(\C)c1cc(C)ccc1C [compound 278] | 90% | 60% | 90% | 93%
9 | CNC(=O)/C(=N/OC)c1cccc(C)c1CO/N=C(\C)c1cccc(N2CC(F)(F)C2)c1 [compound 282] | – | 15% | – | 18%
10 | CO/N=C(/C(=O)OC)c1cccc(C)c1CO/N=C(\C)c1c(F)cccc1Cl [compound 283] | 83% | 30% | 87% | 22%
11 | CNC(=O)/C(=N/OC)c1cccc(C)c1CO/N=C(\C)c1c(F)cccc1Cl [compound 284] | 63% | 44% | 62% | 34%
12 | CO/N=C(/C(=O)OC)c1cccc(C)c1CO/N=C(\C)c1c(C)cccc1F [compound 285] | 87% | 50% | 90% | 35%
13 | C#Cc1cc(F)ccc1/C(C)=N/OCc1c(C)cccc1/C(=N\OC)C(=O)NC [compound 286] | 67% | 15% | 97% | 27%
14 | CNC(=O)/C(=N/OC)c1cccc(C)c1CO/N=C(\C)c1ccccc1C1CC1(F)F (stereo not shown) [compound 288] | 87% | 30% | 97% | 20%
15 | CNC(=O)/C(=N/OC)c1cccc(C)c1CO/N=C(\C)c1c(Cl)cccc1C(F)(F)F [compound 290] | 92% | 14% | 83% | 21%
16 | CC/C(=N\OCc1c(C)cccc1/C(=N\OC)C(=O)NC)c1ccccc1 [compound 294] | 1% | 1% | 2% | 0%
17 | CNC(=O)/C(=N/OC)c1cccc(C)c1CO/N=C(\COC)c1ccccc1 [compound 295] | 2% | 0% | 11% | 0%
18 | CNC(=O)/C(=N/OC)c1cccc(C)c1CO/N=C(\C)c1ccccc1C1(C)CC1 [compound 296] | 100% | 40% | 100% | 83%
19 | CO/N=C(/C(=O)OC)c1cccc(C)c1CO/N=C(\C)c1cccc(C2CC2)c1 [compound 297] | 90% | 37% | 87% | 37%
20 | CNC(=O)/C(=N/OC)c1cccc(C)c1CO/N=C(\C)c1ccccc1C(F)F [compound 298] | 63% | 7% | 97% | 37%
21 | CNC(=O)/C(=N/OC)c1cccc(C)c1CO/N=C(\C)c1cccc(C2CC2)c1 [compound 299] | 53% | 13% | 53% | 22%
22 | CO/N=C(/C(=O)OC)c1cccc(C)c1CO/N=C(\C)c1cccc(C(C)(F)F)c1 [compound 302] | 47% | 4% | 47% | 3%
23 | CNC(=O)/C(=N/OC)c1cccc(C)c1CO/N=C(\C)c1cccc(C(C)(F)F)c1 [compound 303] | 2% | 0% | 12% | 0%
24 | CO/N=C(/C(=O)OC)c1cccc(C)c1CO/N=C(\C)c1ccc(Cl)cc1C(F)(F)F [compound 304] | 53% | 28% | 100% | 37%
25 | CNC(=O)/C(=N/OC)c1cccc(C)c1CO/N=C(\C)c1ccc(OC)cc1C(F)(F)F [compound 324] | 2% | 1% | 12% | 0%
26 | CNC(=O)/C(=N/OC)c1cccc(C)c1CO/N=C(\C)c1c(F)cccc1OC(F)(F)F [compound 325] | 24% | 4% | 22% | 1%
27 | CNC(=O)/C(=N/OC)c1cccc(C)c1CO/N=C(\C)c1cccc(F)c1C(F)(F)F [compound 326] | 25% | 0% | 30% | 1%
